For eight compounds, IC50 results are on record in patent publication US7968554B2, “Pyrazolo[3,4-d]pyrimidine derivatives” (Hoffman-La Roche Inc., priority 2007, dated 2011).

The term pIC50 denotes −log10 of the IC50, conventionally taken in molar units.

pIC50: −log10 of the molar value.

T1 sequence (P15056 416-766 V600E): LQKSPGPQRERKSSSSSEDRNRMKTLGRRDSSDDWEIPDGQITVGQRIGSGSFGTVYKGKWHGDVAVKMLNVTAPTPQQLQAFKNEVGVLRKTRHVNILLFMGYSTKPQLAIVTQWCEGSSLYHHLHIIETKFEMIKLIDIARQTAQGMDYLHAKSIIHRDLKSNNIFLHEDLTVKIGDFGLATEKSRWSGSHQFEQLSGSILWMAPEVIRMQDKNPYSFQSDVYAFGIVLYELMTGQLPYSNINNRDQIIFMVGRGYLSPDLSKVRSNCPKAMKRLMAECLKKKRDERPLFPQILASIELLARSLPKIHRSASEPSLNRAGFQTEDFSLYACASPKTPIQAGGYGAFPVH

The experiment concerns the target T1, b-Raf V600E (Homo sapiens, UniProt P15056, V600E).
T1 construct: recombinant human b-Raf residues 416-end containing a V600E mutation; purchased Upstate 14-5M; host or cells: baculovirus, Sf21 insect cells
Description: b-Raf V600E mutant HTRF assay with 6H-MEK as substrate (dose response). As to conditions: kinase enzyme inhibition, 6H-MEK substrate, read-out: bRaf(V600E) IC50. It counts as biochemical. Here is the method: Kinase Enzyme Inhibition Assay (IC50)
• Enzyme: recombinant human b-Raf residues 416-end with N-terminal GST-tag from Upstate; (expressed by baculovirus in Sf21 insect cells), 0.26 mg/mL (3.87 μM assuming a molecular weight of 67.2 kD) Cat. #14-530M, Lot #25502AU, stored at −80° C. • Substrate: WT full-length 6H-MEK, 4.94 mg/mL (154.4 μM assuming a MW of 32 kD) stored at −15° C. • Antibodies: Rabbit (α-P-(Ser 217/221)-MEK-1/2 Ab (from Cell Signaling, Cat. #9121B, Lot 14); Eu-(α-rabbit IgG (from Wallac, Cat. #AD0083, Lot 318663, 710 ug/mL, 4.4 μM); (α-6H-SureLight-APC (from Martek, Cat. #AD0059H, Lot E012AB01, 3.03 μM). • Reader: Envision from PerkinElmer, HTRF reading mode with 412 mirror • Assay Plate: Matrix all-black polypropylene plates (Cat. #4344) • Others: Weidman 384 polypropylene plates (REMP) for compound plate. Assay Procedure: • (1) Prepare Kinase Assay Buffer (KAB): 50 mM HEPES (HyClone) pH7, 10 mM MgCl2, 1 mM DTT, 0.1 mM […], and 0.3 mg/ml BSA. • (2) Prepare 6H-MEK (150 nM) in KAB. Add 12 μL/well to the assay plate. • (3) Prepare ATP (66 μM) in KAB. • (4) Dilute compounds to 2.4 mM and any positive controls to 480 μM in DMSO. Perform 10-point 3× dilution in DMSO. Withdraw 2.5 μL/well of DMSO solution and add to 27.5 μL/well ATP solution in (3). • (5) Mix, then add 6 μL/well of solution in (4) to the assay plate for a DMSO concentration of 2.1% during MEK phosphorylation. • (6) Prepare b-Raf WT (100 μM) in KAB. • (7) Add 6 μL/well of KAB in columns 1-2 and 6 μL/well of b-Raf WT in columns 3-24. • (8) Incubate at 37° C. for 30 min. • (9) Prepare rabbit (α-P-(Ser 217/221 )-MEK-1/2 Ab (1:200 from stock) in AB1: 50 mM HEPES pH7, 0.2 mg/ml BSA, and 43 mM EDTA. • (10) To stop reaction, add 6 μL/well of solution from (9) to the assay plate and incubate at 37° C. for 30 min. • (11) Prepare Eu-(α-rabbit IgG (9 nM) and (α-6H-SureLight-APC (180 nM) in AB2: 50 mM HEPES pH7 and 0.2 mg/mL BSA. • (12) Add 6 μL/well of solution from (11) to the assay plate. • (13) For determining the spectrum cross talk factor, prepare 2 samples following steps (1) to (10). For the blank sample, add 6 μL/well of AB2. For the cross talk factor sample, add 6 μL/well of Eu-anti rabbit IgG (9 nM). • (14) Incubate at room temperature for 1.5 hours. • (15) Read HTRF signals at 615 nm and 665 nm on the Envision. Normalize HTRF signals after spectrum cross-talk correction. b-Raf V600E Mutant HTRF Assay With 6H-MEK as Substrate (Dose Response) Assay Principle:
The assay utilizes 6H-MEK as the substrate. Upon b-Raf V600E phosphorylation, phosphorylated 6H-MEK is detected with rabbit anti-phospho-MEK1/2, Eu-labeled anti-rabbit, and APC-labeled anti-6H antibodies.
Reagents and Instruments:
• Enzyme: recombinant human b-Raf residues 416-end containing a V600E mutation with N-terminal GST-tag from Upstate; (expressed by baculovirus in Sf21 insect cells), 0.26 mg/mL ([…] assuming a molecular weight of 67.3 kD) Cat. #14-5M, Lot #25633AU, stored at −80° C. • Substrate: WT full-length 6H-MEK, 4.94 mg/mL (154.4 μM assuming a MW of 32 kD) stored at −15° C. • Antibodies: Rabbit (α-P-(Ser 217/221)-MEK-1/2 Ab (from Cell Signaling, Cat. #9121B, Lot 14); Eu-(α-rabbit IgG (from Wallac, Cat. #AD0083, Lot 318663, 710 ug/mL, 4.4 μM); (α-6H-SureLight-APC (from Martek, Cat. #AD0059H, Lot E012AB01, 3.03 μM). • Reader: Envision from PerkinElmer, HTRF reading mode with 412 mirror • Assay Plate: Matrix all-black polypropylene plates (Cat. #4344) • Others: Weidman 384 polypropylene plates (REMP) for compound plate. Assay Procedure: • (1) Prepare Kinase Assay Buffer (KAB): 50 mM HEPES (HyClone) pH7, 10 mM MgCl2, 1 mM DTT, 0.1 mM […], and 0.3 mg/ml BSA. • (2) Prepare 6H-MEK (150 nM) in KAB. Add 12 μl/well to the assay plate. • (3) Prepare ATP (66 μM) in KAB. • (4) Dilute compounds to 2.4 mM and positive controls to 480 μM in DMSO. • Perform 10-point 3× dilution in DMSO. […]
For orientation: TR-FRET usually uses a lanthanide donor and a delayed reading to cut background.
`Cc1nnc(-c2ccc(C)c(OCc3nn(C)c4ncnc(N)c34)c2)o1` [Example 21, 1-Methyl-3-[2-methyl-5-(5-methyl-[1,3,4]oxadiazol-2-yl)-phenoxymethyl]-1H-pyrazolo[3,4-d]pyrimidin-4-ylamine]: the pIC50 was under 5.00.
Turning to `Cc1ccc(OCc2ccccc2)cc1OCc1nn(C)c2ncnc(N)c12` [Example 15, 3-(5-Benzyloxy-2-methyl-phenoxymethyl)-1-methyl-1H-pyrazolo[3,4-d]pyrimidin-4-ylamine], the pIC50 was over 5.00.
The figure for `Cc1noc(-c2ccc(C)c(OCc3nn(C)c4ncnc(N)c34)c2)n1` [Example 13, 4-Amino-1-1-methyl-3-[2-methyl-5-(3-methyl-[1,2,4]oxadiazol-5-yl)-phenoxymethyl]-1H-pyrazolo[3,4-d]pyrimidine] is under 5.00.
As to `Cc1ccc(C(=O)Nc2ccc(Cl)cc2)cc1OCc1nn(C)c2ncnc(N)c12` [Example 17, 3-(4-Amino-1-methyl-1H-pyrazolo[3,4-d]pyrimidin-3-ylmethoxy)-N-(4-chloro-phenyl)-4-methyl-benzamide], the pIC50 is over 5.00.
For `Cc1ccc(OCc2ccc(Cl)cc2)cc1OCc1nn(C)c2ncnc(N)c12` [Example 19, 3-[5-(4-Chloro-benzyloxy)-2-methyl-phenoxymethyl]-1-methyl-1H-pyrazolo[3,4-d]pyrimidin-4-ylamine], the pIC50 was over 5.00.
The figure for `Cc1ccc(NC(=O)c2cccc(Cl)c2)cc1OCc1nn(C)c2ncnc(N)c12` [Example 11, N-[3-(4-Amino-1-methyl-1H-pyrazolo[3,4-d]pyrimidin-3-ylmethoxy)-4-methyl-phenyl]-3-chloro-benzamide] is over 5.00; for `Cn1nc(COc2cccc(OCc3ccccc3)c2)c2c(N)ncnc21` [Example 7, 3-(3-Benzyloxy-phenoxymethyl)-1-methyl-1H-pyrazolo[3,4-d]pyrimidin-4-ylamine] it is under 5.00.
The same measure for `Cc1ccc(NC(=O)c2ccc(NCCO)c(Cl)c2)cc1OCc1nn(C)c2ncnc(N)c12` [Example 9, N-[3-(4-Amino-1-methyl-1H-pyrazolo[3,4-d]pyrimidin-3-ylmethoxy)-4-methyl-phenyl]-3-chloro-4-(2-hydroxy-ethylamino)-benzamide]: over 5.00.
